Reference: patent US20200179310A1, “COMPOSITIONS COMPRISING SALBUTAMOL SULPHATE” (MEXICHEM AMANCO HOLDING S.A. DE C.V., priority 2013, published 2020)

Experiment: Solubility of surfactants in liquid propellant (non-volatile residue of saturated supernatant)
Format: physicochemical
Conditions: for NVR result (quantity of dissolved surfactant in the propellant): equilibrated at 20° C., excess surfactant in 200 g liquid propellant
Protocol: The solubility of various surfactants in R-134a and R-152a was investigated. The solubility was investigated by adding an excess of the surfactant (around 2 grams) to 200 g of the liquid propellant in a pressurised vessel. The vessel was equilibrated at 20° C. for a period of a few hours before decanting a weighed sample of the saturated supernatant liquid propellant through a filter into a clean vessel. The propellant was slowly removed by evaporation and the residue taken up in a small quantity of dichloromethane. The dichloromethane containing the dissolved residue was transferred to a weighed platinum crucible and heated (up to around 100° C.) to remove the solvent. The weighed, solvent-free residue represented the quantity of dissolved surfactant in the propellant.

## Span 80
Refrigerant 134a (R-134a)
  NVR result (quantity of dissolved surfactant in the propellant): 0.07%
Refrigerant 152a (R-152a), 20° C.
  Observation: Sunk to the bottom
Refrigerant 152a (R-152a)
  NVR result (quantity of dissolved surfactant in the propellant): 0.22%
Comparison of Table 1 values
  Solubility in R-152a in comparison with R134a: significant increases in solubility
